# Like-named read-outs stand apart in the source and are kept apart here. *1 amine or outer side, *2 acyl side, *3 side chain or, on linkers, in order; H or OH if unused. Where a SMILES comes first, the peptide text is derived from it. Side-chain parts run from the residue outwards. [ ]: non-standard residue; d: D form. The star is where a group is joined. C20 diacid = O=C(O)CCCCCCCCCCCCCCCCCCC(=O)*; γGlu = O=C(O)[C@H](CCC(=O)[*:2])N[*:1]; AEEA = NCCOCCOCC(=O)O; Aib = CC(C)(N)C(=O)O
# Experiments:
# [1] = Chemical stability (RP-HPLC normalized purity after incubation at 40° C.); type: physicochemical; details: pH 7, 40° C., 14-day incubation, 0.2 mg/ml, normalized purity (area-%)
# Procedure: Samples of each test peptide were dissolved in MILLIQ™ water, and the pH of the solution was adjusted to pH 6, 7, 7.5 or 9 using either HCl or NaOH. The final peptide concentration was 0.2 mg/ml. Samples were placed in glass vials and incubated at 40° C. The samples were analyzed by RP-HPLC on a C18 column with gradient elution using an acetonitrile/TFA/water eluent system. The area-percentage (area-%) of the main peak after incubation time T=t (relative to time T=0) was determined by UV spectroscopy at 220 nm.
# The purity was first determined as follows: Purity(area-%)=(area of main peak/total area of all peaks)×100.
# The purity was then normalized between time points by setting purity at time 0 (T=0) to 100 for each pH value for a given peptide, as follows: Normalized area-% at time t(T=t)=[area-%(T=t)/area-%(T=0)]×100.
# The chemical stability assessment results after 14-day incubation (in the form of normalized purity values) are summarized in Table 4.
# [2] = Solubility assessment (turbidity absorbance at 325 nm); type: physicochemical
# Procedure: A stock solution of the test peptide (2 mg/ml; determined from the weighed amount of peptide) in demineralized water adjusted to pH 2.5 with HCl was prepared, and aliquots were diluted 1:1 in 100 mM acetate buffer (pH 4.0 and pH 5.0), 100 mM histidine buffer (pH 6.0 and pH 7.0) and 100 mM phosphate buffer (pH 6.0, pH 7.0 and pH 7.5), respectively, and loaded in a standard flat-bottom, non-sterile 96-well UV Microplate. The absorbance of samples (single samples, n=1) at 280 and 325 nm was measured in an absorbance-based plate reader, which was preheated to ambient temperature (typically 25° C.).
# [3] = 100 mM acetate buffer pH 4.0, ambient temperature, read-out: Solubility Acetate buffer pH 4
# [4] = 100 mM acetate buffer pH 5.0, ambient temperature, read-out: Solubility Acetate buffer pH 5
# [5] = 100 mM histidine buffer pH 6.0, ambient temperature, read-out: Solubility Histidine buffer pH 6
# [6] = 100 mM histidine buffer pH 7.0, ambient temperature, read-out: Solubility Histidine buffer pH 7
# [7] = 100 mM phosphate buffer pH 6.0, ambient temperature, read-out: Solubility Phosphate buffer pH 6
# [8] = 100 mM phosphate buffer pH 7.0, ambient temperature, read-out: Solubility Phosphate buffer pH 7
# [9] = 100 mM phosphate buffer pH 7.5, ambient temperature, read-out: Solubility Phosphate buffer pH 7.5
pH 7 normalized stability [1],"solubility [2, 3]","solubility [2, 4]","solubility [2, 5]","solubility [2, 6]","solubility [2, 7]","solubility [2, 8]","solubility [2, 9]",SMILES
–,< 1000 µg/mL,< 1000 µg/mL,≥ 1000 µg/mL,≥ 1000 µg/mL,≥ 1000 µg/mL,≥ 1000 µg/mL,≥ 1000 µg/mL,"CC[C@H](C)[C@H](NC(=O)[C@H](Cc1ccccc1)NC(=O)[C@H](CC(=O)O)NC(=O)[C@H](CCCNC(=N)N)NC(=O)[C@H](C)NC(=O)[C@H](C)NC(=O)[C@H](CCC(N)=O)NC(=O)[C@H](CCCCNC(=O)CC[C@H](NC(=O)CCCCCCCCCCCCCCCCC(=O)O)C(=O)O)NC(=O)[C@H](CC(=O)O)NC(=O)[C@H](CC(C)C)NC(=O)[C@@H](NC(=O)[C@@H](NC(=O)[C@H](C)NC(=O)[C@H](CC(C)C)NC(=O)[C@H](CCC(=O)O)NC(=O)[C@H](CO)NC(=O)[C@@H](NC(=O)[C@H](Cc1ccccc1)NC(=O)[C@H](CO)NC(=O)CNC(=O)[C@H](CCC(=O)O)NC(=O)C(C)(C)NC(=O)[C@@H](N)Cc1c[nH]cn1)[C@@H](C)O)[C@@H](C)O)[C@@H](C)CC)C(=O)N[C@@H](C)C(=O)N[C@@H](Cc1c[nH]c2ccccc12)C(=O)N[C@@H](CC(C)C)C(=O)N[C@H](C(=O)N[C@@H](Cc1ccc(O)cc1)C(=O)N[C@@H](Cc1c[nH]cn1)C(=O)N[C@@H](CCCCN)C(=O)N[C@H](C(=O)N[C@H](C(=O)N[C@@H](CC(=O)O)C(=O)O)[C@@H](C)O)[C@@H](C)CC)[C@@H](C)CC [Compound 27] (HELM PEPTIDE1{H.[Aib].E.G.S.F.T.S.E.L.A.T.I.L.D.K.Q.A.A.R.D.F.I.A.W.L.I.Y.H.K.I.T.D}|PEPTIDE2{[O=C(O)CCCCCCCCCCCCCCCCC(=O)[*:2]].[gGlu]}$PEPTIDE1,PEPTIDE2,16:R3-2:R2$$$V2.0)"
–,< 1000 µg/mL,< 1000 µg/mL,≥ 1000 µg/mL,≥ 1000 µg/mL,≥ 1000 µg/mL,≥ 1000 µg/mL,≥ 1000 µg/mL,"CC[C@H](C)[C@H](NC(=O)[C@H](Cc1ccccc1)NC(=O)[C@H](CC(=O)O)NC(=O)[C@H](CCCNC(=N)N)NC(=O)[C@H](C)NC(=O)[C@H](C)NC(=O)[C@H](CCC(N)=O)NC(=O)[C@H](CCCCNC(=O)CC[C@H](NC(=O)CCCCCCCCCCCCCCCCC(=O)O)C(=O)O)NC(=O)[C@H](CC(=O)O)NC(=O)[C@H](CC(C)C)NC(=O)[C@@H](NC(=O)[C@@H](NC(=O)[C@H](C)NC(=O)[C@H](CC(C)C)NC(=O)[C@H](CCC(=O)O)NC(=O)[C@H](CO)NC(=O)[C@H](CO)NC(=O)[C@H](Cc1ccccc1)NC(=O)[C@@H](NC(=O)CNC(=O)[C@H](CCC(=O)O)NC(=O)C(C)(C)NC(=O)[C@@H](N)Cc1c[nH]cn1)[C@@H](C)O)[C@@H](C)O)[C@@H](C)CC)C(=O)N[C@@H](C)C(=O)N[C@@H](Cc1c[nH]c2ccccc12)C(=O)N[C@@H](CC(C)C)C(=O)N[C@H](C(=O)N[C@@H](CCC(=O)O)C(=O)N[C@@H](Cc1c[nH]cn1)C(=O)N[C@@H](CCCCN)C(=O)N[C@H](C(=O)N[C@H](C(=O)N[C@@H](CC(=O)O)C(=O)O)[C@@H](C)O)[C@@H](C)CC)[C@@H](C)CC [Compound 20] (HELM PEPTIDE1{H.[Aib].E.G.T.F.S.S.E.L.A.T.I.L.D.K.Q.A.A.R.D.F.I.A.W.L.I.E.H.K.I.T.D}|PEPTIDE2{[O=C(O)CCCCCCCCCCCCCCCCC(=O)[*:2]].[gGlu]}$PEPTIDE1,PEPTIDE2,16:R3-2:R2$$$V2.0)"

# More lines, now with the values behind:
SMILES,pH 7 normalized stability [1],"solubility [2, 3]","solubility [2, 4]","solubility [2, 5]","solubility [2, 6]","solubility [2, 7]","solubility [2, 8]","solubility [2, 9]"
CC[C@H](C)[C@H](NC(=O)[C@H](Cc1ccccc1)NC(=O)[C@H](CC(=O)O)NC(=O)[C@H](CCCNC(=N)N)NC(=O)[C@H](C)NC(=O)[C@H](C)NC(=O)[C@H](CCC(N)=O)NC(=O)[C@H](CCC(=O)O)NC(=O)[C@H](CC(=O)O)NC(=O)[C@H](CC(C)C)NC(=O)[C@@H](NC(=O)[C@@H](NC(=O)[C@H](C)NC(=O)[C@H](CCCCNC(=O)COCCOCCNC(=O)COCCOCCNC(=O)[C@H](CCCCN)NC(=O)[C@H](CCC(=O)O)NC(=O)[C@H](CCCCN)NC(=O)CC[C@H](NC(=O)CCCCCCCCCCCCCCCCCCC(=O)O)C(=O)O)NC(=O)[C@H](CCC(=O)O)NC(=O)[C@H](CO)NC(=O)[C@@H](NC(=O)[C@H](Cc1ccccc1)NC(=O)[C@H](CO)NC(=O)CNC(=O)[C@H](CCC(=O)O)NC(=O)C(C)(C)NC(=O)[C@@H](N)Cc1c[nH]cn1)[C@@H](C)O)[C@@H](C)O)[C@@H](C)CC)C(=O)N[C@@H](C)C(=O)N[C@@H](Cc1c[nH]c2ccccc12)C(=O)N[C@@H](CC(C)C)C(=O)N[C@H](C(=O)N[C@@H](CCC(=O)O)C(=O)N[C@@H](Cc1c[nH]cn1)C(=O)N[C@@H](CCCCN)C(=O)N[C@H](C(=O)N[C@H](C(=O)N[C@@H](CC(=O)O)C(=O)O)[C@@H](C)O)[C@@H](C)CC)[C@@H](C)CC [Compound 55] (H-H[Aib]EGSFTSEK([AEEA-AEEA-Lys-Glu-Lys-γGlu-C20 diacid])ATILDEQAARDFIAWLIEHKITD-OH),A (>90% normalised stability),–,–,–,–,–,–,–
CC[C@H](C)[C@H](NC(=O)[C@H](Cc1ccccc1)NC(=O)[C@H](CC(=O)O)NC(=O)[C@H](CCCCNC(=O)COCCOCCNC(=O)COCCOCCNC(=O)[C@H](CCCCN)NC(=O)[C@H](CCC(=O)O)NC(=O)[C@H](CCCCN)NC(=O)CC[C@H](NC(=O)CCCCCCCCCCCCCCCCCCC(=O)O)C(=O)O)NC(=O)[C@H](C)NC(=O)[C@H](C)NC(=O)[C@H](CCC(N)=O)NC(=O)[C@H](CCC(=O)O)NC(=O)[C@H](CC(=O)O)NC(=O)[C@H](CC(C)C)NC(=O)[C@@H](NC(=O)[C@@H](NC(=O)[C@H](C)NC(=O)[C@H](CC(C)C)NC(=O)[C@H](CCC(=O)O)NC(=O)[C@H](CO)NC(=O)[C@@H](NC(=O)[C@H](Cc1ccccc1)NC(=O)[C@@H](NC(=O)CNC(=O)[C@H](CCC(=O)O)NC(=O)C(C)(C)NC(=O)[C@@H](N)Cc1c[nH]cn1)[C@@H](C)O)[C@@H](C)O)[C@@H](C)O)[C@@H](C)CC)C(=O)N[C@@H](C)C(=O)N[C@@H](Cc1c[nH]c2ccccc12)C(=O)N[C@@H](CC(C)C)C(=O)N[C@H](C(=O)N[C@@H](CCC(=O)O)C(=O)N[C@@H](Cc1c[nH]cn1)C(=O)N[C@@H](CCCCN)C(=O)N[C@H](C(=O)N[C@H](C(=O)N[C@@H](CC(=O)O)C(=O)O)[C@@H](C)O)[C@@H](C)CC)[C@@H](C)CC [Compound 67] (H-H[Aib]EGTFTSELATILDEQAAK([AEEA-AEEA-Lys-Glu-Lys-γGlu-C20 diacid])DFIAWLIEHKITD-OH),A (>90% normalised stability),–,–,–,–,–,–,–
"CC[C@H](C)[C@H](NC(=O)[C@H](Cc1ccccc1)NC(=O)[C@H](CC(=O)O)NC(=O)[C@H](CCCNC(=N)N)NC(=O)[C@H](C)NC(=O)[C@H](C)NC(=O)[C@H](CCC(N)=O)NC(=O)[C@H](CCCCNC(=O)COCCOCCNC(=O)CC[C@H](NC(=O)CCCCCCCCCCCCCCCCC(=O)O)C(=O)O)NC(=O)[C@H](CC(=O)O)NC(=O)[C@H](CC(C)C)NC(=O)[C@@H](NC(=O)[C@@H](NC(=O)[C@H](C)NC(=O)[C@H](CC(C)C)NC(=O)[C@H](CCC(=O)O)NC(=O)[C@H](CO)NC(=O)[C@@H](NC(=O)[C@H](Cc1ccccc1)NC(=O)[C@H](CO)NC(=O)CNC(=O)[C@H](CCC(=O)O)NC(=O)C(C)(C)NC(=O)[C@@H](N)Cc1c[nH]cn1)[C@@H](C)O)[C@@H](C)O)[C@@H](C)CC)C(=O)N[C@@H](C)C(=O)N[C@@H](Cc1c[nH]c2ccccc12)C(=O)N[C@@H](CC(C)C)C(=O)N[C@@H](Cc1ccc(O)cc1)C(=O)N[C@@H](CCC(N)=O)C(=O)N[C@@H](Cc1c[nH]cn1)C(=O)N[C@@H](CCCCN)C(=O)N[C@H](C(=O)N[C@H](C(=O)N[C@@H](CC(=O)O)C(=O)O)[C@@H](C)O)[C@@H](C)CC [Compound 33] (HELM PEPTIDE1{H.[Aib].E.G.S.F.T.S.E.L.A.T.I.L.D.K.Q.A.A.R.D.F.I.A.W.L.Y.Q.H.K.I.T.D}|PEPTIDE2{[O=C(O)CCCCCCCCCCCCCCCCC(=O)[*:2]].[gGlu].[O=C(COCCOCCN[*:1])[*:2]]}$PEPTIDE1,PEPTIDE2,16:R3-3:R2$$$V2.0)",A (>90% normalised stability),–,–,–,–,–,–,–
"CC[C@H](C)[C@H](NC(=O)[C@H](Cc1ccccc1)NC(=O)[C@H](CC(=O)O)NC(=O)[C@H](CCCNC(=N)N)NC(=O)[C@H](C)NC(=O)[C@H](C)NC(=O)[C@H](CC(C)C)NC(=O)[C@H](CC(N)=O)NC(=O)[C@H](CC(=O)O)NC(=O)[C@H](CC(C)C)NC(=O)[C@@H](NC(=O)[C@@H](NC(=O)[C@H](CC(N)=O)NC(=O)[C@H](CCSC)NC(=O)[C@H](CCC(=O)O)NC(=O)[C@H](CC(=O)O)NC(=O)[C@H](CO)NC(=O)[C@H](Cc1ccccc1)NC(=O)[C@H](CO)NC(=O)CNC(=O)[C@H](CC(=O)O)NC(=O)CNC(=O)[C@@H](N)Cc1c[nH]cn1)[C@@H](C)O)[C@@H](C)CC)C(=O)N[C@@H](CC(N)=O)C(=O)N[C@@H](Cc1c[nH]c2ccccc12)C(=O)N[C@@H](CC(C)C)C(=O)N[C@H](C(=O)N[C@@H](CCC(N)=O)C(=O)N[C@H](C(=O)N[C@@H](CCCCN)C(=O)N[C@H](C(=O)N[C@H](C(=O)N[C@@H](CC(=O)O)C(=O)O)[C@@H](C)O)[C@@H](C)CC)[C@@H](C)O)[C@@H](C)CC [Teduglutide, [Gly2]-hGLP-2 (1-33), reference compound]",–,< 1000 µg/mL,< 1000 µg/mL,< 1000 µg/mL,≥ 1000 µg/mL,< 1000 µg/mL,< 1000 µg/mL,≥ 1000 µg/mL

# Source: US11395847B2, “Acylated GLP-1/GLP-2 dual agonists” (Zealand Pharma A/S, priority 2016, dated 2022)
